Experimental findings from paper PMC6749586, “Design, Synthesis, and Anticancer Effect Studies of Iridium(III) Polypyridyl Complexes against SGC-7901 Cells” (Molecules, 2019) are described below.

Bounds are passed on as bounds.

Series [1] has as its system SGC-7901 cells. Briefly: Mitochondrial membrane potential assay with JC-1. Format: cell-based, human. Particulars: 24 h; for Ratio of red/green JC-1 fluorescence intensity (R): substance alone: 4.0 µM 1, 15.0 µM 2, 15.0 µM 3, CCCP or NAC, control 12.03; for Ratio of red/green JC-1 fluorescence intensity (R), complex + NAC: 4.0 µM 1, 15.0 µM 2, 15.0 µM 3, in the presence of NAC. The protocol: The SGC-7901 cells were seeded into a 12-well plate at a density of 1.5 × 10^5 cells per well and incubated to attach at 37 °C in 5% CO2. Overnight, the cells were treated with complexes 1–3 for 24 h. CCCP was used as a positive control. Then, the cells were incubated with JC-1 for 30 min at room temperature, after which the remaining dye was washed away with PBS. The samples were then observed under the ImageXpress Micro XLS system and flow cytometry was employed to quantify the fluorescence intensity.

The subject of another series is A549 cells. The series can be described thus: MTT cytotoxicity assay, A549. Format: cell-based, human. The settings on record: 48 h, read-out: IC50 toward A549. The source says: (§1) The lung carcinoma cell line A549, the cervical cancer cell line HeLa, the esophageal cancer cell line Eca-109, and the human hepatocellular carcinoma cell line BEL-7402 were purchased from the cell bank of the Cell Institute of Sinica Academia Shanghai (Shanghai, China). The gastric adenocarcinoma cell line SGC-7901, the hepatocellular carcinoma cell line HepG2, and the mouse embryonic fibroblast cell line NIH 3T3 were obtained from the Experimental Animal Center of Sun Yat-Sen University (Guangzhou, China). The BEL-7402 and SGC-7901 cell lines were cultured in Roswell Park Memorial Institute Medium (RPMI-1640); and A549, Eca-109, HepG2, and NIH 3T3 cells were grown in Dulbecco’s Modified Eagle’s Medium (DMEM), including 10% fetal bovine serum (FBS), 100 units mL^−1 penicillin/streptomycin mixture, and 2.0 g/L of NaHCO3. Cell passage experiments were performed with trypsin every 2 days to maintain exponential growth. All cells were cultured until they reached logarithmic growth phase, unless specifically noted.
(§2) Cell cytotoxicity following treatment with the iridium(III) complexes was detected by MTT assay. The cells were seeded into 96-well micro-assay culture plates (1 × 10^4 cells per well) and grown overnight in a 5% CO2 incubator at 37 °C. Then, the cell lines were treated with gradient concentrations of the complexes 1–3. After treatment for 48 h, MTT solution (5 mg mL^−1, […]) dissolved in phosphate buffer was added to each well and the cells were further cultured for 4 h. Upon completion of incubation, the solvent was removed and 100 µL/well of buffer containing dimethylformamide (50%) and sodium dodecyl sulfate (20%) was added to dissolve the produced formazan. The absorbance of each well was measured with a microplate reader at a wavelength of 490 nm. The IC50 values were determined from the plots of viability versus concentration used to treat the cells. Three independent experiments were performed to obtain the mean values.

In the next series the test system is HeLa cells. The series can be described thus: MTT cytotoxicity assay, HeLa. Type of series: cell-based, human. The settings on record: 48 h, read-out: IC50 toward HeLa.
Description: as §1, §2
Background: Tetrazolium dyes change colour on reduction, which living cells bring about.

In a further series the test system is HepG2 cells. Briefly: MTT cytotoxicity assay, HepG2. The settings on record: 48 h, read-out: IC50 toward HepG2. Type of series: cell-based, human.
Description: as §1, §2

The subject of series [2] is SGC-7901 cells. Briefly: Intracellular Ca2+ level with Fluo-3AM. Format: cell-based, human. Particulars: 4.0 µM 1, 15.0 µM 2, 15.0 µM 3, 24 h; controls weak green fluorescence. The protocol:
SGC-7901 cells in the logarithmic growth phase were seeded in 12-well microassay culture plates (1.5 × 10^5 cells per well), incubated overnight, and then treated with different concentrations of the tested complexes (4.0 µM 1, 15.0 μM 2, and 15.0 μM 3) for 24 h. The control wells were prepared by the addition of solvent (10 μL PBS buffer). The concentration of Ca^2+ was detected using the Ca^2+-sensitive fluorescent probe Fluo-3AM. Upon completion of incubation, the medium was removed and the wells were washed twice with PBS buffer, following which the cells were dyed with Fluo-3AM for 30 min. After dyeing, the cells were washed again and stained with Hoechst 33258 (10 μg mL^−1) for 30 min. The remaining dye was removed and the cells were observed under an ImageXpress Micro XLS system.

Series [3] concerns SGC-7901 cells. Briefly: Intracellular ROS measurement with DCFH-DA. Type of series: cell-based, human. The settings on record: 4.0 µM 1, 15.0 µM 2, 15.0 µM 3, Rosup positive control, 24 h, versus control. As for the experimental part: 2,7-Dichloro-dihydrofluorescein diacetate (DCFH-DA) was used as a fluorescence probe to investigate the changes in intracellular ROS levels. SGC-7901 cells were placed in a 12-well plate at a density of 1.5 × 10^5 per well. After 24 h, the medium in the wells was replaced with a medium containing the corresponding concentration of 1–3, and the cells were incubated for 24 h. Finally, the cell pellets were suspended in PBS and imaged under the ImageXpress Micro XLS system (MD company, US). The DCF fluorescence intensity was calculated by flow cytometry.

Series [4] in a line: Oil-water partition coefficient, flask-shake method. Format: physicochemical. The settings on record: octanol/water, pH 7.4, flask-shake, 25 °C. The protocol: The pH of the cells cultured in vitro was approximately 7.4. With this in mind, we evaluated the lipophilicity of the iridium complexes by detecting the partition coefficient at pH = 7.4, using the flask-shake method. Each drug was dissolved in pre-saturated octanol at final concentrations of 0.02 and 0.03 mM. Aliquots of 5 mL of drug solution and distilled water (previously saturated with octanol) were transferred to a 25 mL flask and shaked at 25 °C for 24 h. After the shaking was completed, the solution was allowed to stand for 48 h to fully equilibrate the aqueous phase and the organic phase. The concentration of the complexes in the aqueous phase was then measured by UV-vis spectroscopy at the maximum ultraviolet absorption (262 nm for 1, 249 nm for 2, and 251 nm for 3). The evaluation of each sample was repeated three times.

A further series has as its system Eca-109 cells. The series can be described thus: MTT cytotoxicity assay, Eca-109. Type of series: cell-based, human. The settings on record: 48 h, read-out: IC50 toward Eca-109. From the text:
The lung carcinoma cell line A549, the cervical cancer cell line HeLa, the esophageal cancer cell line Eca-109, and the human hepatocellular carcinoma cell line BEL-7402 were purchased from the cell bank of the Cell Institute of Sinica Academia Shanghai (Shanghai, China). The gastric adenocarcinoma cell line SGC-7901, the hepatocellular carcinoma cell line HepG2, and the mouse embryonic fibroblast cell line NIH 3T3 were obtained from the Experimental Animal Center of Sun Yat-Sen University (Guangzhou, China). […] Cell passage experiments were performed with trypsin every 2 days to maintain exponential growth. All cells were cultured until they reached logarithmic growth phase, unless specifically noted. Cell cytotoxicity following treatment with the iridium(III) complexes was detected by MTT assay. The cells were seeded into 96-well micro-assay culture plates (1 × 10^4 cells per well) and grown overnight in a 5% CO2 incubator at 37 °C. Then, the cell lines were treated with gradient concentrations of the complexes 1–3. After treatment for 48 h, MTT solution (5 mg mL^−1, […]) dissolved in phosphate buffer was added to each well and the cells were further cultured for 4 h. […] The absorbance of each well was measured with a microplate reader at a wavelength of 490 nm. The IC50 values were determined from the plots of viability versus concentration used to treat the cells. Three independent experiments were performed to obtain the mean values.

For the compound `F[P-](F)(F)(F)(F)F.Nc1c(N)c2cccnc2c2ncccc12.[Ir+3].[c-]1ccccc1-c1ccccn1.[c-]1ccccc1-c1ccccn1` [Complex 3, [Ir(Hppy)2(DAP)]PF6], the “Ratio of red/green JC-1 fluorescence intensity (R)” value in the series with SGC-7901 cells [1] is listed as 1.49. Also, the IC50 with A549 cells is > 100 µM; in the series with HeLa cells it was 59.7 ± 6.8 µM; in the series on HepG2 cells, 95 ± 9.1 µM; in the series on Eca-109 cells it was 97.1 ± 0.2 µM. Further, the “Intracellular Ca2+ level, Fluo-3AM fluorescence” value (“Intracellular Ca2+ level” for short) with SGC-7901 cells [2] was “brilliant green fluorescence”. Moreover, the “Intracellular ROS level, DCF green fluorescence (imaging)” value (shortened to “Intracellular ROS level”) in the series with SGC-7901 cells [3] is “increased green fluorescence intensity”. The logPo/w in series [4] came to 0.78.

Regarding `F[P-](F)(F)(F)(F)F.O=[N+]([O-])c1cc2ccc[n+]3c2c2c1ccc[n+]2[Ir-5]312([c]3ccccc3-c3cccc[n+]31)[c]1ccccc1-c1cccc[n+]12` [Complex 1, [Ir(Hppy)2(NP)]PF6], the “Ratio of red/green JC-1 fluorescence intensity (R), complex + NAC” value in the series with SGC-7901 cells [1] was determined as 1.86. In addition, the “Ratio of red/green JC-1 fluorescence intensity (R)” value in the series on SGC-7901 cells [1] is given as 0.43. Further, the IC50 in the series with A549 cells amounted to 14.3 ± 2.4 µM; with HeLa cells, 16.3 ± 0.9 µM; in the series on HepG2 cells, 30.9 ± 0.7 µM; with Eca-109 cells it was 20.3 ± 0.9 µM. The “Intracellular Ca2+ level” value in the series with SGC-7901 cells [2] is listed as “brilliant green fluorescence”. In the series on SGC-7901 cells [3], the “Intracellular ROS level” value is reported as “increased green fluorescence intensity”. In series [4], this compound came in with a logPo/w of 1.01.

As to `F[P-](F)(F)(F)(F)F.Nc1c([N+](=O)[O-])c2cccnc2c2ncccc12.[Ir+3].[c-]1ccccc1-c1ccccn1.[c-]1ccccc1-c1ccccn1` [Complex 2, [Ir(Hppy)2(NAP)]PF6], in the series with SGC-7901 cells [1], the “Ratio of red/green JC-1 fluorescence intensity (R), complex + NAC” value is recorded as 17.99. Also, the “Ratio of red/green JC-1 fluorescence intensity (R)” value in the series with SGC-7901 cells [1] turned out to be 7.12. Also, the IC50 in the series with A549 cells was 80.6 ± 1.4 µM; in the series on HeLa cells it was 52.6 ± 1.4 µM; in the series on HepG2 cells, 99 ± 14.7 µM; in the series with Eca-109 cells it was 72.6 ± 5.3 µM. For the same compound, the “Intracellular Ca2+ level” value with SGC-7901 cells [2] is recorded as “brilliant green fluorescence”. In addition, in the series with SGC-7901 cells [3], the “Intracellular ROS level” value is “increased green fluorescence intensity”. Moreover, the logPo/w in series [4] came out at 1.33.

Usually IC50 stands for the point on the concentration scale where inhibition reaches its midpoint.
